Strand notation (5' to 3'): a small letter for the sugar, then the base; units joined by * are phosphorothioate-linked, units joined directly phosphodiester-linked; [ ] holds rarer units or linkages, { } end groups; capitals alone tell only the bases. e = 2'-O-(2-methoxyethyl) (MOE); k = constrained ethyl (cEt); [5mC] = 5-methylcytosine; d = 2'-deoxy (DNA)
Experiments:
[1] = tested on: human PKK mRNA; assay: Dose-dependent antisense inhibition of human PKK in HepaRG cells, 0.11-3.00 uM (Example 6); format: cell-based; details: for percent inhibition of PKK mRNA, 0.11 μM / percent inhibition of PKK mRNA, 0.33 μM / percent inhibition of PKK mRNA, 1.00 μM / percent inhibition of PKK mRNA, 3.00 μM: electroporation, approx. 16 hours, relative to untreated control cells; for IC50: 0.11-3.00 μM
Protocol: Cells were plated at a density of 20,000 cells per well and transfected using electroporation with 0.11 μM, 0.33 μM, 1.00 μM, and 3.00 μM concentrations of antisense oligonucleotide. After a treatment period of approximately 16 hours, RNA was isolated from the cells and PKK mRNA levels were measured by quantitative real-time PCR. Human PKK primer probe set RTS3454 was used to measure mRNA levels. PKK mRNA levels were adjusted according to total RNA content, as measured by RIBOGREEN®. The antisense oligonucleotides were tested in a series of experiments that had similar culture conditions.
The half maximal inhibitory concentration (IC50) of each oligonucleotide is also presented.

[2] = tested on: human PKK mRNA; assay: Antisense inhibition of human PKK mRNA in HepaRG cells, 1,000 nM, MOE/deoxy/cEt oligonucleotides (Example 3); format: cell-based; details: HepaRG cells, electroporation with 1,000 nM antisense oligonucleotide, PKK mRNA by RT-PCR (RTS3454), relative to untreated control cells
Procedure, shortened: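 Readout is percent PKK mRNA reduction against untreated controls, by real-time PCR (RTS3454) adjusted for total RNA via RIBOGREEN. Oligonucleotides, phosphorothioate gapmers of 16 nucleosides with cEt, MOE and deoxy sugars, were delivered at 1,000 nM by electroporation to 20,000 HepaRG cells/well for roughly 24 h.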

[3] = Table 21 experiment, approx. 24 hours
[4] = Table 20, approximately 24 hours
[5] = Table 22 experiment, approx. 24 hours

| Substance | percent inhibition of PKK mRNA, 0.11 μM [1] [%] | percent inhibition of PKK mRNA, 0.33 μM [1] [%] | percent inhibition of PKK mRNA, 1.00 μM [1] [%] | % inhibition [2, 3] [%] | IC50 [1] [nM] | percent inhibition of PKK mRNA, 3.00 μM [1] [%] | % inhibition [2, 4] [%] | % inhibition [2, 5] [%] |
| --- | --- | --- | --- | --- | --- | --- | --- | --- |
| 547824 (e[5mC]*eG*kA*dT*dG*dT*dA*d[5mC]*dT*dT*dT*dT*dG*kG*k[5mC]*eA; antisense) [compound 547824] | 45 | 73 | 78 | 82 |  |  |  |  |
| 547835 (e[5mC]*e[5mC]*kA*dG*dA*dA*dA*d[5mC]*dT*dG*d[5mC]*dA*d[5mC]*k[5mC]*kT*eG; antisense) [compound 547835] | 44 | 27 | 53 | 81 | 900 | 79 |  |  |
| 547843 (antisense e[5mC]*eA*k[5mC]*dT*dT*dA*dT*dT*dT*dG*dA*dT*dG*kA*k[5mC]*e[5mC]) [compound 547843] | 0 | 52 | 80 |  | 400 | 91 | 83 | 83 |
| 547849 (antisense eA*eA*kT*dG*dT*d[5mC]*dT*d[5mC]*dG*dA*dT*dG*dG*k[5mC]*kA*eA) [compound 547849] | 36 | 52 | 67 |  | 300 |  | 79 | 90 |
| 547851 (antisense eT*eA*kA*dA*dT*dG*dT*d[5mC]*dT*d[5mC]*dG*dA*dT*kG*kG*e[5mC]) [compound 547851] | 16 | 46 | 83 |  | 400 |  | 93 | 84 |
| 547857 (antisense e[5mC]*eT*k[5mC]*dA*dT*dA*dT*d[5mC]*dA*dA*d[5mC]*dT*d[5mC]*k[5mC]*kT*eT) [compound 547857] | 36 | 66 | 77 |  | 200 | 93 |  | 84 |
| 547859 (antisense e[5mC]*e[5mC]*kT*d[5mC]*dT*d[5mC]*dA*dT*dA*dT*d[5mC]*dA*dA*k[5mC]*kT*e[5mC]) [compound 547859] | 29 | 56 | 83 |  | 300 | 78 | 77 | 88 |
| 547861 (antisense eA*e[5mC]*kT*d[5mC]*d[5mC]*dT*d[5mC]*dT*d[5mC]*dA*dT*dA*dT*k[5mC]*kA*eA) [compound 547861] | 7 | 40 | 75 |  | 500 | 84 | 0 | 57 |
| 547862 (antisense eG*eA*k[5mC]*dT*d[5mC]*d[5mC]*dT*d[5mC]*dT*d[5mC]*dA*dT*dA*kT*k[5mC]*eA) [compound 547862] | 26 | 71 | 69 |  | 300 |  | 22 | 88 |
| 547870 (antisense e[5mC]*eT*kA*dA*d[5mC]*d[5mC]*dT*dT*dA*dG*dA*d[5mC]*dA*k[5mC]*kA*eT) [compound 547870] | 0 | 44 | 80 |  | 600 | 97 | 89 | 83 |

From patent US11840686B2, “Modulation of prekallikrein (PKK) expression” (Ionis Pharmaceuticals, Inc., priority 2013, dated 2023)
